Data: ChEMBL document CHEMBL1124482, “Rotationally restricted mimics of rigid molecules: nonspirocyclic hydantoin aldose reductase inhibitors” (J Med Chem, 1989)

Legend:
[1] = biological target: T1, Aldo-keto reductase family 1 member B1 (Homo sapiens, UniProt P15121); assay: Inhibition of human placental aldose reductase (HPAR) activity with glyceraldehyde as substrate
[2] = biological target: T1, Aldo-keto reductase family 1 member B1; assay: Compound was evaluated for inhibition of human placental aldose reductase (HPAR) activity with glyceraldehyde as substrate

SMILES	IC50 [1] [nM]	IC50 [2] [nM]
CCCCCCS(=O)(=O)c1ccc(Cl)cc1C1NC(=O)NC1=O (centres undefined)	230	
CC(C)S(=O)(=O)c1ccc(Cl)cc1C1NC(=O)NC1=O (centres undefined)	380	
CCCCNS(=O)(=O)c1ccc(Cl)cc1C1NC(=O)NC1=O (centres undefined)		700
O=C1NC(=O)C(c2cc(Cl)ccc2S(=O)(=O)NCc2ccccc2)N1 (centres undefined)	30	
O=C1NC(=O)C(c2cc(Cl)ccc2S(=O)(=O)CCc2ccc(Cl)cc2)N1 (centres undefined)	220	
O=C1NC(=O)C(c2cc(Cl)ccc2S(=O)(=O)NCCCCc2ccccc2)N1 (centres undefined)	5630	
CCCCCS(=O)(=O)c1ccc(Cl)cc1C1NC(=O)NC1=O (centres undefined)	50	
CCS(=O)(=O)c1ccc(Cl)cc1C1NC(=O)NC1=O (centres undefined)	180	
Cc1cc(Cl)cc(C2NC(=O)NC2=O)c1S(C)(=O)=O (centres undefined)	270	
CCCCCNS(=O)(=O)c1ccc(Cl)cc1C1NC(=O)NC1=O (centres undefined)	190	
O=C1NC(=O)C(c2cc(Cl)ccc2S(=O)(=O)Cc2ccc(Cl)cc2)N1 (centres undefined)	270	
O=C1NC(=O)C(c2cc(Cl)ccc2S(=O)(=O)NCCCc2ccccc2)N1 (centres undefined)	100	
CNS(=O)(=O)c1ccc(Cl)cc1C1NC(=O)NC1=O (centres undefined)	130	
COc1ccc(F)cc1C1NC(=O)NC1=O (centres undefined)	7470	
O=C1NC(=O)C(c2cc(Cl)ccc2[S+]([O-])Cc2ccc(Cl)cc2)N1 (centres undefined)	470	
O=C1NC(=O)C(c2cc(Cl)ccc2SCc2ccc(Cl)cc2)N1 (centres undefined)	1200	
CS(=O)(=O)c1ccc(F)cc1C1NC(=O)NC1=O (centres undefined)	610	
O=C1NC(=O)C(c2cc(Cl)ccc2S(=O)(=O)Nc2ccc(F)cc2)N1 (centres undefined)	230	
O=C1NC(=O)C(c2cc(Cl)ccc2S(=O)(=O)NCCc2ccccc2)N1 (centres undefined)	1260	
CS(=O)(=O)c1c(Cl)cc(Cl)cc1C1NC(=O)NC1=O (centres undefined)	610	
CS(=O)(=O)c1ccc(Cl)cc1C1NC(=O)NC1=O (centres undefined)		50
COc1ccc(Cl)cc1C1NC(=O)NC1=O (centres undefined)	3870	
CSc1ccc(Cl)cc1C1NC(=O)NC1=O (centres undefined)	620	
C[S+]([O-])c1ccc(Cl)cc1C1NC(=O)NC1=O (centres undefined)		250
NS(=O)(=O)c1ccc(Cl)cc1C1NC(=O)NC1=O (centres undefined)	150	
CN(C)S(=O)(=O)c1ccc(Cl)cc1C1NC(=O)NC1=O (centres undefined)	4470	
CCCNS(=O)(=O)c1ccc(Cl)cc1C1NC(=O)NC1=O (centres undefined)	580	
CS(=O)(=O)c1c(C2NC(=O)NC2=O)cc(Cl)cc1C(F)(F)F (centres undefined)	580	
CCCS(=O)(=O)c1ccc(Cl)cc1C1NC(=O)NC1=O (centres undefined)	250	
